Values quoted from earlier work in patent US20030165581A1, “Compositions for treating diabetes mellitus, methods of use and manufacturing process of the same” (priority 2002, published 2003).
Read-outs that look alike come from different tables or passages of the source.

Columns and labels:
[1] = test system: subjects with mild Type II diabetes; details: for drop of average blood glucose level compared to placebo: dry powder base, two-piece hard gelatin capsule; for drop of average blood glucose level: oil based soft gelatin capsule, two weeks
[2] = test system: human subjects with mild Type II diabetes
[3] = test system: subjects with mild Type II diabetes; details: for average blood glucose level: soft gelatin formulation, 48 mg daily, control 168.3
[4] = test system: Ehrlich ascites tumor cells; details: time course of glucose uptake
Type II diabetic rats = details: supplementation with corosolic acid; control group showed elevation
[5] = test system: rats with experimentally induced diabetes; details: reduced from 300 mg/dL
mice = details: oral dose
[6] = test system: hereditary Type II diabetic mice
[7] = supplemented with corosolic acid

C[C@H]1[C@H](C)CC[C@]2(C(=O)O)CC[C@]3(C)C(=CC[C@@H]4[C@@]5(C)C[C@@H](O)[C@H](O)C(C)(C)[C@@H]5CC[C@]43C)[C@H]12 [corosolic acid]
drop of average blood glucose level compared to placebo ([1]; 16 mg per day): 3.18%
drop of average blood glucose level compared to placebo ([1]; 32 mg per day): 6.5%
drop of average blood glucose level compared to placebo ([1]; 48 mg per day): 20.2%
drop of average blood glucose level ([1]; 16 mg per day): 4.9%
drop of average blood glucose level ([1]; 32 mg per day): 10.7%
drop of average blood glucose level ([1]; 48 mg per day): 31.9%
adverse effects ([2]; short-term (four weeks) treatment): no signs of adverse effects
blood glucose levels ([2]; tablet after each meal three times daily, four weeks, vs placebo): effective in reducing blood glucose levels
blood glucose level during washout ([3]; 15 days of washout after soft gelatin treatment): 131.7 mg/dL
blood glucose level during washout ([3]; 30 days of washout after soft gelatin treatment): 153.2 mg/dL
blood glucose level during washout ([3]; 45 days of washout after soft gelatin treatment): 168.2 mg/dL
decline in blood glucose levels after a meal ([3]; compared to untreated (diabetic) control conditions): sharper decline
weight loss ([3]; dry-powder based formulation): no weight loss
average weight loss ([3]; oil-based formulation in a soft gelatin capsule): 3.2 pounds
adverse effects ([3]; oral dose, cross-over study): no signs of adverse effects
average blood glucose level ([3]; 15th day of treatment): 127.2 mg/deciliter
average blood glucose level ([3]; 30th day of treatment): 115.1 mg/deciliter
memory effect after termination of the treatment ([3]; washout period blood glucose levels): up to four
glucose transport-stimulating activity (glucose uptake by Ehrlich cells) [4]: significant glucose transport-stimulating activity
glucose levels (Type II diabetic rats): decrease in glucose levels
time of peak reduction after administration (normal rabbits; after large doses): two to four
blood sugar reduction (normal rabbits; large doses): more than 57 mg per 100 mL blood
time blood sugar remained low (normal rabbits; repetition of the first dose after two more hours): more than 5 hours
blood sugar level after corosolic acid [5]: 150 mg/dL
blood sugar levels (mice): reduces blood sugar levels
increase of plasma glucose levels ([6]; diet including corosolic acid for five weeks vs control diet): completely suppressed
level of serum insulin [6, 7]: lowered
total plasma cholesterol [6, 7]: lowered
urinary excreted glucose [6, 7]: lowered
